# Where two headings read alike, the source gives them in different places.
# Columns and labels:
# PBMCs = assay: Toxicity to PBMC, XTT; type: cell-based, human
# HIV-1 [1] = assay: PBMC assay, virus production by reverse transcriptase activity; type: cell-based; conditions: ROJO in PBMC
# Description: Method 2: PBMC Assay Method (Peripheral Blood Mononuclear cell)—Description
# This assay addresses the issue of providing a rationale for further evaluation of the compound by providing evidence of in vitro anti-HIV activity against a low passage clinical strain of HIV-1. These fresh human peripheral blood mononuclear cell assays use fresh human cells obtained from the American Red Cross from uninfected, normal human donors. Mononuclear cells from these blood samples are isolated by centrifugation and infected with low passage clinical strains of HIV-1 which have been obtained by culture of blood cells from HIV-infected patients with uninfected PBMCs. Since the PBMCs are not killed by HIV infection, endpoint quantification is performed by measurement of virus production in each well by reverse transcriptase assay or p24 ELISA. These assays provide evidence that the test compounds will have efficacy against viruses, which will likely be encountered in patients without genetic changes, introduced by passage in cell culture.
# Thus, PBMCs assay measures the amount of virus released from the infected cells into the tissue culture supernatant. The activity of the test compound is measured by its ability to reduce the level of virus production relative to the virus controls (cells+virus with no added compound). In PBMC culture we use reverse transcriptase activity in the supernatant to quantify the amount of virus production from the infected cells. Endpoint quantification is performed at 6 days post-infection.
# Fresh human peripheral blood lymphocytes (PBL) are isolated from voluntary Red Cross donors, seronegative for HIV and HBV. Leukophoresed blood is diluted 1:1 with Dulbecco's phosphate buffered saline (PBS), layered over 14 mL of Ficoll-Hypaque density gradient in a 50 mL centrifuge tube. Tubes are then centrifuged for 30 minutes at 600×g. Banded PBLs are gently aspirated from the resulting interface and subsequently washed 2× with PBS by low speed centrifugation. […] After incubation, PBLs are centrifuged and reset in RPMI 1640 with 15% FBS, 2 mM L-glutamine, 100 U/mL. penicillin, 100 ug/mL streptomycin, 10 ug/mL gentamycin, and 20 U/mL recombinant human IL-2. PBLs are maintained in this medium at a concentration of 1-2×10E6/mL with bi-weekly medium changes, until use in assay protocol. For the PBL assay, PHA-P stimulated cells from at least two normal donors are pooled, set in fresh medium at 2×10E6/mL and plated in the interior wells of a 96 well round bottom microplate at 50 μL/well. Test drug dilutions are prepared at a 2× concentration in microtiter tubes and 100 μL of each concentration is placed in appropriate wells in a standard format. 50 μL of a predetermined dilution of virus stock is placed in each test well. Wells with cells and virus alone are used for virus control. Separate plates are identically set without virus for drug cytotoxicity studies using an XTT assay system.
# In the standard PBL assay (MOI: 0.2), the assay was ended on day 7 following collection of cell free supernatant samples for reverse transcriptase activity assay. In the low MOI PBL assay (MOI: 0.02), supernatant samples were collected on day 6, day 11, and day 14 post-infection and analyzed for RT activity.
# HIV-1 [2] = conditions: CEM-SS, HIV1 RF
# Procedure: This is a cytoprotection assay that uses the T-lymphoblastoid tumor cell line CEM-SS and laboratory adapted strains of HIV-1. Upon infection with HIV, the CEM-SS cells form syncytia and eventually die, producing large amounts of progeny virus over the course of 4-6 days at the standard multiplicity of infection (0.01). The antiviral assay measures the ability of a given compound to inhibit the HIV-induced cell killing. […] The activity of the compound is evaluated by measuring cell viability at 6 days post-infection and comparing the viability to that obtained in cell control (cells only), virus control (cells and virus only) and toxicity control (cells and compound only) wells.
# Efficacy of the compound in cell culture is measured by increased cell viability in CEM-SS assays or reduction in virus production in PBMC assays. The data obtained yields a dose response curve which can be evaluated to determine doses which yield 25%, 50% and 95% protection from HIV-induced cell killing or virus production. […] These concentrations are reported as the TC25, TC50 and TC95 values. The ratio of toxicity to efficacy constitutes the therapeutic index TC50/IC50.
# CEM-SS cells assay measures the ability of the compound to inhibit HIV induced cell killing. The cells are stained at 6 days post-infection with the tetrazolium dye XTT which is converted to a colored formazan product by the mitochondria of viable cells. Protection from cell killing afforded by the test compound is measured by comparison to both cell controls and virus controls. Cell killing in this system is directly related to the amount of virus produced by the infected cells and XTT-formazan production is proportional to the number of viable cells in each well. Toxicity of the compound to the target cells is measured in parallel.
# CEM-SS cells (or other established human cell line used in these experiments) were passaged in T-150 flasks for use in the assay. On the day preceding the assay, the cells were split 1:2 to assure they would be in an exponential growth phase at time of infection. On the day of assay the cells were washed twice with tissue culture medium and resuspended in fresh tissue culture medium. Total cell and viability counting was performed using hemacytometer and trypan blue dye exclusion. Cell viability was greater than 95% for the cells to be utilized in the assay. The cells were pelleted and resuspended at 2.5×10^4 cells per ml in tissue culture medium. Cells were added to the drug-containing plates in a volume of 50 μl.
# A pretitered aliquot of virus was removed from the freezer (−80° C.) and allowed to thaw slowly to room temperature in a biological safety cabinet. The virus was resuspended and diluted into tissue culture medium such that the amount of virus added to each well in a volume of 50 μl will be the amount determined to give complete cell killing at 6 days post-infection. In general the virus pools produced with the IIIB isolate of HIV required the addition of 5 μl of virus per well.
# Each plate contained cell control wells (cells only), virus control wells (cells plus virus), drug toxicity control wells (cells plus drug only), drug colorimetric control wells (drug only) as well as experimental wells (drug plus cells plus virus).
# After 6 days of incubation at 37° C. in a 5% CO2 incubator the test plates were analyzed by staining with the tetrazolium dye XTT. XTT-tetrazolium is metabolized by the mitochondrial enzymes of metabolically active cells to a soluble formazan product, allowing the rapid quantitative analysis of the inhibition of HIV-induced cell killing by anti-HIV test substances. On day 6 post-infection plates were removed from the incubator and observed.
# CEM-SS cells = type: cell-based; conditions: CEM-SS
# [3] = system: Escherichia coli ATCC 11229; assay: Microdilution broth MIC assay; type: cell-based; conditions: ATCC11229, Ec, Mueller Hinton broth, about 17 hr
# Procedure: (§1) Test organisms. The test organisms are listed in Table 5 along with their source. Prior to assay, overnight bacterial slant cultures were used to inoculate Mueller Hinton broth followed by incubation for 5-7 hr. Each culture was then standardized turbidimetrically to a viable count of about 10^6 colony forming units/ml and used to inoculate the mirotiter assay plates. The viable count after addition to the plates was about 5×10^5 CFU/ml.
# (§2) Experimental design. The MIC of the test compounds for the bacterial strains was determined with a microdilution broth assay in 96 well microtiter plates. The test compounds were dissolved in DMSO and then diluted 10-fold in assay medium (Mueller Hinton broth) to obtain final concentrations of 0.128, 1.28, 12.8, and 128 μg/ml. A viability control containing DMSO, diluted in the same manner as the test compounds, was used to confirm that the DMSO was not inhibitory by itself. Trimethoprim (TMP) was used as a positive drug control. The assay plates were incubated at 37° C. for about 17 hr and each assay well observed visually for growth. The MIC was determined at the lowest concentration of drug which inhibited growth. [drawing 32]
# [4] = system: Staphylococcus epidermidis ATCC 35984; assay: Microdilution broth MIC assay; type: cell-based; conditions: ATCC35984, Se, Mueller Hinton broth, about 17 hr
# Procedure: as §1, §2
# [5] = system: Klebsiella pneumoniae ATCC 4352; assay: Microdilution broth MIC assay; type: cell-based; conditions: ATCC4352, Kp, Mueller Hinton broth, about 17 hr
# Procedure: as §1, §2
# [6] = system: Streptococcus pneumoniae ATCC 6303; assay: Microdilution broth MIC assay; type: cell-based; conditions: ATCC6303, Sp, Mueller Hinton broth, about 17 hr
# Procedure: as §1, §2
# [7] = system: Proteus mirabilis ATCC 9921; assay: Microdilution broth MIC assay; type: cell-based; conditions: ATCC9921, Pm, Mueller Hinton broth, about 17 hr
# Procedure: as §1, §2
# [8] = system: Pseudomonas aeruginosa ATCC 15442; assay: Microdilution broth MIC assay; type: cell-based; conditions: ATCC15442, Pa, Mueller Hinton broth, about 17 hr
# Procedure: as §1, §2
# [9] = system: Staphylococcus aureus ATCC 6538; assay: Microdilution broth MIC assay; type: cell-based; conditions: ATCC6538, Sa, Mueller Hinton broth, about 17 hr
# Procedure: as §1, §2
smiles,measurement,setting,value
"Cc1cn([C@H]2C[C@H](N=[N+]=[N-])[C@@H](CO)O2)c(=O)[nH]c1=O [AZT, reference compound]",CC50,PBMCs,> 4000 nM
same,RT ACTIVITY % VC,HIV-1 [1]; 0.0013 μM,104.6%
same,RT ACTIVITY MEAN,HIV-1 [1]; 0.0013 μM,7531.7 cpm
same,RT ACTIVITY % VC,HIV-1 [1]; 0.013 μM,77.3%
same,RT ACTIVITY MEAN,HIV-1 [1]; 0.013 μM,5566.3 cpm
same,RT ACTIVITY % VC,HIV-1 [1]; 0.04 μM,81.7%
same,RT ACTIVITY MEAN,HIV-1 [1]; 0.04 μM,5880.0 cpm
same,RT ACTIVITY % VC,HIV-1 [1]; 0.13 μM,32.3%
same,RT ACTIVITY MEAN,HIV-1 [1]; 0.13 μM,2397.0 cpm
same,RT ACTIVITY % VC,HIV-1 [1]; 0.4 μM,3.8%
same,RT ACTIVITY MEAN,HIV-1 [1]; 0.4 μM,274.0 cpm
same,RT ACTIVITY % VC,HIV-1 [1]; 1.3 μM,8.8%
same,RT ACTIVITY MEAN,HIV-1 [1]; 1.3 μM,88.0 cpm
same,RT ACTIVITY % VC,HIV-1 [1]; 4 μM,0.7%
same,RT ACTIVITY MEAN,HIV-1 [1]; 4 μM,48.3 cpm
same,IC50,"HIV-1 [1]; RT activity, read-out: IC50",100 nM
"Nc1ccn([C@H]2CC[C@@H](CO)O2)c(=O)n1 [DDC, di-deoxycytosine, reference compound]",% RED. IN VIRAL CPE,HIV-1 [2]; 0.00003 μM,1%
same,ANTIVIRAL TEST VALUES MEAN O.D.,HIV-1 [2]; 0.00003 μM,0.014 O.D.
same,% RED. IN VIRAL CPE,HIV-1 [2]; 0.0001 μM,5%
same,ANTIVIRAL TEST VALUES MEAN O.D.,HIV-1 [2]; 0.0001 μM,0.062 O.D.
same,% RED. IN VIRAL CPE,HIV-1 [2]; 0.00032 μM,6%
same,ANTIVIRAL TEST VALUES MEAN O.D.,HIV-1 [2]; 0.00032 μM,0.080 O.D.
same,% RED. IN VIRAL CPE,HIV-1 [2]; 0.001 μM,4%
same,ANTIVIRAL TEST VALUES MEAN O.D.,HIV-1 [2]; 0.001 μM,0.057 O.D.
same,% RED. IN VIRAL CPE,HIV-1 [2]; 0.0032 μM,8%
same,ANTIVIRAL TEST VALUES MEAN O.D.,HIV-1 [2]; 0.0032 μM,0.109 O.D.
same,% RED. IN VIRAL CPE,HIV-1 [2]; 0.01 μM,9%
same,ANTIVIRAL TEST VALUES MEAN O.D.,HIV-1 [2]; 0.01 μM,0.119 O.D.
same,% RED. IN VIRAL CPE,HIV-1 [2]; 0.032 μM,75%
same,ANTIVIRAL TEST VALUES MEAN O.D.,HIV-1 [2]; 0.032 μM,1.019 O.D.
same,% RED. IN VIRAL CPE,HIV-1 [2]; 0.1 μM,81%
same,ANTIVIRAL TEST VALUES MEAN O.D.,HIV-1 [2]; 0.1 μM,1.099 O.D.
same,% RED. IN VIRAL CPE,HIV-1 [2]; 0.32 μM,92%
same,ANTIVIRAL TEST VALUES MEAN O.D.,HIV-1 [2]; 0.32 μM,1.246 O.D.
same,% RED. IN VIRAL CPE,HIV-1 [2]; 1 μM,86%
same,ANTIVIRAL TEST VALUES MEAN O.D.,HIV-1 [2]; 1 μM,1.166 O.D.
same,% RED. IN VIRAL CPE,HIV-1 [2]; 3.2 μM,100%
same,ANTIVIRAL TEST VALUES MEAN O.D.,HIV-1 [2]; 3.2 μM,1.754 O.D.
same,% RED. IN VIRAL CPE,HIV-1 [2]; 10 μM,100%
same,ANTIVIRAL TEST VALUES MEAN O.D.,HIV-1 [2]; 10 μM,1.687 O.D.
same,IC 25%,HIV-1 [2],0.01 CM
same,IC 95%,HIV-1 [2],2.11 CM
same,% CELL VIABILITY,CEM-SS cells; 0.00003 μM,100%
same,CYTOTOXICITY TEST VALUES MEAN O.D.,CEM-SS cells; 0.00003 μM,1.496 O.D.
same,% CELL VIABILITY,CEM-SS cells; 0.0001 μM,93%
same,CYTOTOXICITY TEST VALUES MEAN O.D.,CEM-SS cells; 0.0001 μM,1.346 O.D.
same,% CELL VIABILITY,CEM-SS cells; 0.00032 μM,99%
same,CYTOTOXICITY TEST VALUES MEAN O.D.,CEM-SS cells; 0.00032 μM,1.428 O.D.
same,% CELL VIABILITY,CEM-SS cells; 0.001 μM,100%
same,CYTOTOXICITY TEST VALUES MEAN O.D.,CEM-SS cells; 0.001 μM,1.476 O.D.
same,% CELL VIABILITY,CEM-SS cells; 0.0032 μM,100%
same,CYTOTOXICITY TEST VALUES MEAN O.D.,CEM-SS cells; 0.0032 μM,1.450 O.D.
same,% CELL VIABILITY,CEM-SS cells; 0.01 μM,100%
same,CYTOTOXICITY TEST VALUES MEAN O.D.,CEM-SS cells; 0.01 μM,1.550 O.D.
same,% CELL VIABILITY,CEM-SS cells; 0.032 μM,100%
same,CYTOTOXICITY TEST VALUES MEAN O.D.,CEM-SS cells; 0.032 μM,1.658 O.D.
same,% CELL VIABILITY,CEM-SS cells; 0.1 μM,96%
same,CYTOTOXICITY TEST VALUES MEAN O.D.,CEM-SS cells; 0.1 μM,1.391 O.D.
same,% CELL VIABILITY,CEM-SS cells; 0.32 μM,97%
same,CYTOTOXICITY TEST VALUES MEAN O.D.,CEM-SS cells; 0.32 μM,1.400 O.D.
same,% CELL VIABILITY,CEM-SS cells; 1 μM,100%
same,CYTOTOXICITY TEST VALUES MEAN O.D.,CEM-SS cells; 1 μM,1.469 O.D.
same,% CELL VIABILITY,CEM-SS cells; 3.2 μM,100%
same,CYTOTOXICITY TEST VALUES MEAN O.D.,CEM-SS cells; 3.2 μM,1.826 O.D.
same,% CELL VIABILITY,CEM-SS cells; 10 μM,100%
same,CYTOTOXICITY TEST VALUES MEAN O.D.,CEM-SS cells; 10 μM,2.064 O.D.
same,TC 25%,CEM-SS cells; XTT,>10.00 CM
same,TC 50%,CEM-SS cells; XTT,>10.00 CM
same,TC 95%,CEM-SS cells; XTT,>10.00 CM
"COc1cc(Cc2cnc(N)nc2N)cc(OC)c1OC [TMP, Trimethoprim, reference compound]",MIC,[3],0.064 to 0.64 µg/mL
same,MIC,[4],> 64 µg/mL
same,MIC,[5],0.064 to 0.64 µg/mL
same,MIC,[6],0.64 to 6.4 µg/mL
same,MIC,[7],0.64 to 6.4 µg/mL
same,MIC,[8],> 64 µg/mL
same,MIC,[9],0.064 to 0.64 µg/mL

# — patent US6699989B1, “Antiviral and antimicrobial guanidine or biguanidine derivatives” (priority 2000, dated 2004)
